Laboratory results as given in paper PMC12251549, “Engineering a Radiohybrid PSMA Ligand with an Albumin-Binding Moiety and Pharmacokinetic Modulation via an Albumin-Binding Competitor for Radiotheranostics” (Molecules, 2025).

Experiments:
[1] = Biodistribution after intravenous co-injection of [125I]5 and [211At]6 (Table S2); assay type: in vivo, normal mice (ddY); details: normal mice
Procedure: [^67Ga]Ga-PSMA-617 (37 kBq) and [^125I]5 (37 kBq) or [^125I]5 (37 kBq) and [^211At]6 (37 kBq) were intravenously co-administered into three or four normal mice at each timepoint (6 weeks male ddY mice, 28–30 g, Japan SLC, Inc., Hamamatsu, Japan). Mice were sacrificed at 10 min, 1 h, 4 h, and 24 h ([^67Ga]Ga-PSMA-617 and [^125I]5) or at 10 min, 1 h, 4 h, 12 h, and 24 h ([^125I]5 and [^211At]6) postinjection of the radiolabeled compounds. Tissues of interest were removed and weighed, and the radioactivity of ^67Ga and ^125I and ^125I and ^211At were determined with an auto well gamma counter (ARC-8001) and corrected for background radiation as described in the Cellular Uptake Experiments Section. To determine the amount and routes of the radioactivity excreted from the body for 24 h after the injection of radiolabeled compounds, mice were housed in metabolic cages (METABOLICA, SUGIYAMA-GEN Co., Ltd., Tokyo, Japan). Data are shown as the percentage of injected dose per gram of tissues (%ID/g) or %ID.

[2] = In vitro stability test in 0.1 M phosphate buffer; assay type: physicochemical; details: 0.1 M PB solution containing 10% ethanol, 37 °C, 24 h, mean ± SD for three samples
Procedure: samples were analyzed by RP-HPLC using a Cosmosil 5C18-AR-II (4.6 × 150 mm) at a flow rate of 1 mL/min with a gradient mobile phase of 60% methanol in water with 0.1% trifluoroacetic acid (TFA) to 80% methanol in water with 0.1% TFA for 20 min.
In vitro stability test in 0.1 M PB solution containing 10% ethanol was performed. The […]
and 97.1 ± 0.9% (mean ± SD for three samples) after incubating at 37 °C for 24 h, […]

For O=C([O-])CN1CCN(CC(=O)[O-])CCN(CC(=O)NC(CCCCNC(=O)CCCc2ccc([125I])cc2)C(=O)NCC2CCC(C(=O)NC(Cc3ccc4ccccc4c3)C(=O)NCCCCC(NC(=O)NC(CCC(=O)O)C(=O)O)C(=O)O)CC2)CCN(CC(=O)[O-])CC1.[Ga+3] (stereo not shown) [[^125I]5], the “In vivo dehalogenation (radioactivity in stomach and neck)” value [1] was “minimal deiodination or deastatination”, the “Biodistribution of radioactivity: Blood” value ([1]; i.v., 10 min after injection) was 24.34 (0.27) % injected dose per gram and the “Biodistribution of radioactivity: Bone” value ([1]; i.v., 10 min after injection) was 2.42 (0.54) % injected dose per gram. The “Biodistribution of radioactivity: Brain” value ([1]; i.v., 10 min after injection) was 0.50 (0.04) % injected dose per gram, the “Biodistribution of radioactivity: Heart” value ([1]; i.v., 10 min after injection) was 4.48 (0.24) % injected dose per gram and the “Biodistribution of radioactivity: Kidney” value ([1]; i.v., 10 min after injection) was 5.27 (0.62) % injected dose per gram. For the same compound, the “Biodistribution of radioactivity: L. Intestine” value (“Biodistribution … L. Intestine” below) ([1]; i.v., 10 min after injection) was 0.84 (0.07) % injected dose per gram, the “Biodistribution of radioactivity: Liver” value ([1]; i.v., 10 min after injection) was 3.56 (0.01) % injected dose per gram and the “Biodistribution of radioactivity: Lung” value ([1]; i.v., 10 min after injection) was 13.97 (2.31) % injected dose per gram. The “Biodistribution of radioactivity: Muscle” value ([1]; i.v., 10 min after injection) was 1.01 (0.09) % injected dose per gram, the “Biodistribution of radioactivity: Neck” value ([1]; i.v., 10 min after injection) was 0.06 (0.01) % injected dose and the “Biodistribution of radioactivity: Pancreas” value (“Biodistribution … Pancreas” below) ([1]; i.v., 10 min after injection) was 2.73 (0.25) % injected dose per gram. For the same compound, the “Biodistribution of radioactivity: S. Intestine” value (“Biodistribution … S. Intestine” below) ([1]; i.v., 10 min after injection) was 1.63 (0.23) % injected dose per gram, the “Biodistribution of radioactivity: Spleen” value ([1]; i.v., 10 min after injection) was 2.78 (0.58) % injected dose per gram and the “Biodistribution of radioactivity: Stomach” value (“Biodistribution … Stomach” below) ([1]; i.v., 10 min after injection) was 1.12 (0.10) % injected dose. The “Biodistribution of radioactivity: Blood” value ([1]; i.v., 1 h after injection) was 15.32 (1.28) % injected dose per gram, the “Biodistribution of radioactivity: Bone” value ([1]; i.v., 1 h after injection) was 1.67 (0.13) % injected dose per gram and the “Biodistribution of radioactivity: Brain” value ([1]; i.v., 1 h after injection) was 0.33 (0.09) % injected dose per gram. The “Biodistribution of radioactivity: Heart” value ([1]; i.v., 1 h after injection) was 4.10 (0.15) % injected dose per gram, the “Biodistribution of radioactivity: Kidney” value ([1]; i.v., 1 h after injection) was 4.66 (0.50) % injected dose per gram and the “Biodistribution … L. Intestine” value ([1]; i.v., 1 h after injection) was 0.89 (0.15) % injected dose per gram. The “Biodistribution of radioactivity: Liver” value ([1]; i.v., 1 h after injection) was 2.32 (0.32) % injected dose per gram, the “Biodistribution of radioactivity: Lung” value ([1]; i.v., 1 h after injection) was 8.89 (2.09) % injected dose per gram and the “Biodistribution of radioactivity: Muscle” value ([1]; i.v., 1 h after injection) was 1.24 (0.08) % injected dose per gram. For the same compound, the “Biodistribution of radioactivity: Neck” value ([1]; i.v., 1 h after injection) was 0.15 (0.04) % injected dose, the “Biodistribution … Pancreas” value ([1]; i.v., 1 h after injection) was 1.86 (0.33) % injected dose per gram and the “Biodistribution … S. Intestine” value ([1]; i.v., 1 h after injection) was 1.62 (0.30) % injected dose per gram. For the same compound, the “Biodistribution of radioactivity: Spleen” value ([1]; i.v., 1 h after injection) was 1.79 (0.34) % injected dose per gram, the “Biodistribution … Stomach” value ([1]; i.v., 1 h after injection) was 1.29 (0.50) % injected dose and the “Biodistribution of radioactivity: Blood” value ([1]; i.v., 4 h after injection) was 12.08 (0.95) % injected dose per gram. The “Biodistribution of radioactivity: Bone” value ([1]; i.v., 4 h after injection) was 1.83 (0.61) % injected dose per gram, the “Biodistribution of radioactivity: Brain” value ([1]; i.v., 4 h after injection) was 0.29 (0.04) % injected dose per gram and the “Biodistribution of radioactivity: Heart” value ([1]; i.v., 4 h after injection) was 3.88 (0.13) % injected dose per gram. For the same compound, the “Biodistribution of radioactivity: Kidney” value ([1]; i.v., 4 h after injection) was 5.20 (0.25) % injected dose per gram, the “Biodistribution … L. Intestine” value ([1]; i.v., 4 h after injection) was 1.26 (0.30) % injected dose per gram and the “Biodistribution of radioactivity: Liver” value ([1]; i.v., 4 h after injection) was 1.50 (0.16) % injected dose per gram. For the same compound, the “Biodistribution of radioactivity: Lung” value ([1]; i.v., 4 h after injection) was 7.01 (1.68) % injected dose per gram, the “Biodistribution of radioactivity: Muscle” value ([1]; i.v., 4 h after injection) was 1.20 (0.07) % injected dose per gram and the “Biodistribution of radioactivity: Neck” value ([1]; i.v., 4 h after injection) was 0.27 (0.09) % injected dose. The “Biodistribution … Pancreas” value ([1]; i.v., 4 h after injection) was 1.57 (0.21) % injected dose per gram, the “Biodistribution … S. Intestine” value ([1]; i.v., 4 h after injection) was 1.28 (0.16) % injected dose per gram and the “Biodistribution of radioactivity: Spleen” value ([1]; i.v., 4 h after injection) was 1.54 (0.22) % injected dose per gram. For the same compound, the “Biodistribution … Stomach” value ([1]; i.v., 4 h after injection) was 0.94 (0.29) % injected dose, the “Biodistribution of radioactivity: Blood” value ([1]; i.v., 12 h after injection) was 11.77 (1.29) % injected dose per gram and the “Biodistribution of radioactivity: Bone” value ([1]; i.v., 12 h after injection) was 1.88 (0.25) % injected dose per gram. The “Biodistribution of radioactivity: Brain” value ([1]; i.v., 12 h after injection) was 0.34 (0.07) % injected dose per gram, the “Biodistribution of radioactivity: Heart” value ([1]; i.v., 12 h after injection) was 3.62 (0.39) % injected dose per gram and the “Biodistribution of radioactivity: Kidney” value ([1]; i.v., 12 h after injection) was 6.62 (0.34) % injected dose per gram. For the same compound, the “Biodistribution … L. Intestine” value ([1]; i.v., 12 h after injection) was 0.87 (0.13) % injected dose per gram, the “Biodistribution of radioactivity: Liver” value ([1]; i.v., 12 h after injection) was 1.59 (0.12) % injected dose per gram and the “Biodistribution of radioactivity: Lung” value ([1]; i.v., 12 h after injection) was 8.00 (1.24) % injected dose per gram. The “Biodistribution of radioactivity: Muscle” value ([1]; i.v., 12 h after injection) was 1.32 (0.07) % injected dose per gram, the “Biodistribution of radioactivity: Neck” value ([1]; i.v., 12 h after injection) was 0.12 (0.09) % injected dose and the “Biodistribution … Pancreas” value ([1]; i.v., 12 h after injection) was 1.75 (0.45) % injected dose per gram. For the same compound, the “Biodistribution … S. Intestine” value ([1]; i.v., 12 h after injection) was 1.08 (0.07) % injected dose per gram, the “Biodistribution of radioactivity: Spleen” value ([1]; i.v., 12 h after injection) was 1.75 (0.21) % injected dose per gram and the “Biodistribution … Stomach” value ([1]; i.v., 12 h after injection) was 0.68 (0.09) % injected dose. For the same compound, the “Biodistribution of radioactivity: Blood” value ([1]; i.v., 24 h after injection) was 8.71 (0.20) % injected dose per gram, the “Biodistribution of radioactivity: Bone” value ([1]; i.v., 24 h after injection) was 1.26 (0.12) % injected dose per gram and the “Biodistribution of radioactivity: Brain” value ([1]; i.v., 24 h after injection) was 0.22 (0.02) % injected dose per gram. For the same compound, the “Biodistribution of radioactivity: Heart” value ([1]; i.v., 24 h after injection) was 2.91 (0.21) % injected dose per gram, the “Biodistribution of radioactivity: Kidney” value ([1]; i.v., 24 h after injection) was 5.06 (0.61) % injected dose per gram and the “Biodistribution … L. Intestine” value ([1]; i.v., 24 h after injection) was 0.63 (0.09) % injected dose per gram. The “Biodistribution of radioactivity: Liver” value ([1]; i.v., 24 h after injection) was 1.29 (0.05) % injected dose per gram, the “Biodistribution of radioactivity: Lung” value ([1]; i.v., 24 h after injection) was 5.00 (0.75) % injected dose per gram and the “Biodistribution of radioactivity: Muscle” value ([1]; i.v., 24 h after injection) was 1.08 (0.08) % injected dose per gram. The “Biodistribution of radioactivity: Neck” value ([1]; i.v., 24 h after injection) was 0.17 (0.05) % injected dose, the “Biodistribution … Pancreas” value ([1]; i.v., 24 h after injection) was 1.35 (0.12) % injected dose per gram and the “Biodistribution … S. Intestine” value ([1]; i.v., 24 h after injection) was 0.69 (0.04) % injected dose per gram. For the same compound, the “Biodistribution of radioactivity: Spleen” value ([1]; i.v., 24 h after injection) was 1.21 (0.27) % injected dose per gram, the “Biodistribution … Stomach” value ([1]; i.v., 24 h after injection) was 0.55 (0.02) % injected dose and the “Biodistribution of radioactivity: Feces” value ([1]; i.v., excreted for 24 h after injection (column not printed safely), Table S2) was 8.13 (1.09) % injected dose. For the same compound, the “Radiochemical purity after incubation (in vitro stability)” value [2] was 97.0 ± 0.7%.
